Assay results taken from publication PMC6320911, “Discovery of a Natural Syk Inhibitor from Chinese Medicine through a Docking-Based Virtual Screening and Biological Assay Study” (Molecules, 2018).

Biological target: T1, Spleen tyrosine kinase (Syk) (Homo sapiens, UniProt P43405)
T1 construct: Syk (ab60886)
Test: ADP-Glo luminescent kinase assay with dose-response ([…] ATP in substrate solution, poly Glu:Tyr […])
Format: biochemical

In the case of Cc1coc2c1C(=O)C(=O)c1c-2ccc2c(C)cccc12 [compound 13, Tanshinone I], the IC50 is reported as 1.64 µM.
